From US20240294531A1, “COVALENT HETEROCYCLES AND USES THEREOF” (Kumquat Biosciences Inc., priority 2022, published 2024)

Tests used:
[1] = Intrinsic reactivity assay; format: physicochemical; settings: pH 7.4, 37° C., suitably protected Cys-OMe
Source text: Understanding of the intrinsic reactivity of electrophilic warheads with nucleophilic molecules is an important parameter influencing the stability of a compound in biological matrices. Lower intrinsic reactivity also mitigates the risk of covalent off-target reactivity. A common target residue for covalent drugs is cysteine, an amino acid containing a nucleophilic thiol side chain. The assay described here measures the rate of a compound forming a covalent bond with Boc-protected cysteine methyl ester or cysteine methyl ester that can be used as a surrogate for cysteines found on proteins.
Test compounds are prepared as 10 mM stock solutions in DMSO (Fisher cat #BP231-100). Compounds with molecular weight differing more than 3 Dalton are pooled and diluted to 5 μM in 100 mM potassium phosphate buffer, pH 7.4, containing 50 mM Boc-protected cysteine methyl ester (Combi-Blocks cat #QH-3424). Compounds incubated without Boc-protected cysteine methyl ester serve as controls. The reactions are incubated at 37° C., and reaction aliquots at different time intervals are sampled from the reaction and quenched with formic acid for subsequent LC-MS/MS analysis.
The LC-MS/MS analysis is done using a LC-40D×3 pump and SIL-40C×3 autosampler (Shimadzu) coupled to a QTRAP 6500+ (Sciex). Compounds are separated on a XBridge Premier BEH column (Waters). The sample run time is about 4 minutes per injection. The normalized peak area for each compound is extracted from the mass spectrometry raw files, and the data for each compound are plotted against time in Prism version 9.4 (GraphPad). Nonlinear regression using one-phase decay is used to estimate the rate of covalent bond formation with Boc-protected cysteine methyl ester or cysteine methyl ester and parent compound half-life (t½).

[2] = target: BTK C481S protein (Homo sapiens (Human), UniProt Q06187, C481S); assay: BTK C481S HTRF displacement assay; format: binding; settings: 1-hour incubation
BTK C481S protein, sequence (Q06187 2-659 C481S): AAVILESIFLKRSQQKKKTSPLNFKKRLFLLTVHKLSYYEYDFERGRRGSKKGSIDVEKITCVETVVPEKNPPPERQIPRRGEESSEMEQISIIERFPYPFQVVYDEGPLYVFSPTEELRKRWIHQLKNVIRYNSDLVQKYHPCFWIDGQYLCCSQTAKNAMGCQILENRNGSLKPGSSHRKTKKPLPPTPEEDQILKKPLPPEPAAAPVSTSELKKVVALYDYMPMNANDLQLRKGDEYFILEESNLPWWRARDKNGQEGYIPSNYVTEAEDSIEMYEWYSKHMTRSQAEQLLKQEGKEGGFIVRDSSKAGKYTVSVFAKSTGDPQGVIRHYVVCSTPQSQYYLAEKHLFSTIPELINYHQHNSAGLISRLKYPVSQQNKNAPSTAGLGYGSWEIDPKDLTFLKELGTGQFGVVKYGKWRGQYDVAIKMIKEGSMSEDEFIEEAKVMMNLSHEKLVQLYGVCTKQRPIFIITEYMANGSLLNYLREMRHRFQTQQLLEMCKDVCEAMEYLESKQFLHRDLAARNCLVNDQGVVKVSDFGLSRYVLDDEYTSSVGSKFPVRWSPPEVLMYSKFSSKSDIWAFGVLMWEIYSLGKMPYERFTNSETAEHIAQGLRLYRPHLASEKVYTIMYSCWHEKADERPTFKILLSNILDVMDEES
Outline: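 Tracer displacement read by HTRF after 1 hour at room temperature: GST-BTK C481S 2-659, 50 nM tracer 239 (Kd 54 nM), anti-GST antibody, compound in six four-fold doses from 5 μM. Percent inhibition versus DMSO fitted (bottom 0, top 100) for IC50, converted to KI via Cheng-Prusoff.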

[3] = target: T1, BTK wildtype protein (Homo sapiens (Human), UniProt Q06187); assay: Kinact/KI determination for BTK protein inhibitors (Kobs); format: binding
Procedure: Test compounds were prepared as 10 mM stock solutions in DMSO (Fisher cat #BP231-100). Human recombinant BTK wildtype protein 393-659 or BTK C481S protein 393-659 was produced in house or purchased from Saromics Biostructures AB (Lund, Sweden). BTK protein was diluted to 1 μM in buffer (20 mM Hepes, pH 7.5, 150 mM NaCl, 1 mM MgCl2, 1 mM DTT). For testing BTK modification, compounds were diluted to 50× final test concentration in DMSO in 96-well storage plates. 1 μL of the diluted 50× compounds were added to appropriate wells in the PCR plate (Fisher cat #AB-0800). Increasing concentrations of compounds were added to separate wells, resulting in final assay compound concentrations of 3 μM, 10 μM, 30 μM and 100 μM. 49 μL of the stock protein solution was added to each well of the 96-well PCR plate. Reactions were mixed carefully. The plate was sealed well with aluminum plate seal and stored in a drawer at room temperature. After different incubation times, the reactions were quenched by adding 5 μL of 2% formic acid (Fisher cat #A117-50) in MilliQ H2O to each well followed by mixing with a pipette. The plate was then resealed with aluminum seal and stored until mass spectrometry analysis.
The extent of covalent modification of BTK proteins was determined by liquid chromatography electrospray mass spectrometry analysis of the intact proteins using a Thermo Q-Exactive Plus mass spectrometer. 20 μL of sample was injected onto a bioZen 3.6 μm Intact C4 column (Phenomenex cat #00B-4767-AN) placed in a column oven set to 40° C. and separated using a LC gradient from 20% to 60% solvent B. Solvent A was 0.1% formic acid and solvent B was 0.1% formic acid in acetonitrile. HESI source settings were set to 40, 5 and 1 for the sheath, auxiliary and sweep gas flow, respectively. The spray voltage was 4 kV, and the capillary temperature was 320° C. S-lens RF level was 50 and auxiliary gas heater temperature was set to 200° C. The mass spectrometry was acquired using a scan range from 650 to 1750 m/z using positive polarity at a mass resolution of 70,000, AGC target of 1e6 ions and maximum injection time of 250 ms. The recorded protein mass spectrum was deconvoluted from the raw data file using Protein Deconvolution v4.0 (Thermo). The protein mass, adduct masses and their corresponding peak intensities were exported to Excel (Microsoft). The peak intensities for the unmodified and modified protein were used to calculate the percent covalent modification of the BTK protein based on the following equation: % BTK protein modification=((BTK−compound)/(BTK)+(BTK−Compound))*100.
The Kinact/KI is a rate constant describing the efficiency of covalent bond formation resulting from the potency (KI) of the first reversible binding event and the maximum potential rate (Kinact) of inactivation. The percent […] protein modification was plotted as a function of time using Prism version 9.4.1 (GraphPad), and the observed rate of modification (Kobs), a first-order rate constant with units of inverse time, was estimated using nonlinear regression at each compound concentration. […] If Kobs is increasing with compound concentration, KI is higher than 3 μM. Kinact/KI can be estimated by plotting Kobs values against each compound concentration used in separate reactions. The Kobs values are fitted to determine Kinact and KI using the following equation, Kobs=(Kinact×[compound conc])/(KI+[compound conc]).
Target sequence in this assay (Q06187 393-659): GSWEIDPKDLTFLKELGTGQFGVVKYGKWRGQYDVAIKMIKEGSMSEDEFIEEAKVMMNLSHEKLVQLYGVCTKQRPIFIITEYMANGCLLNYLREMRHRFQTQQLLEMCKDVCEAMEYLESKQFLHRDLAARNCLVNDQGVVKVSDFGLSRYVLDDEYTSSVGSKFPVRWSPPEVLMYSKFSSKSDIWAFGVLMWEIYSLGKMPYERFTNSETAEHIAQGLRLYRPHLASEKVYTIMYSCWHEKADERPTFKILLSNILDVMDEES

[4] = target: T1, BTK wildtype protein; assay: BTK wildtype HTRF displacement assay; format: binding; settings: 1-hour incubation; read-out: BTK (wt) IC50
Outline: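 Tracer-displacement HTRF format: compound and tracer 239 compete at the BTK active site, detected via anti-GST-Tb on GST-tagged full-length enzyme. One-hour room-temperature incubation; compounds dosed at six four-fold steps down from 5 μM. Percent inhibition versus DMSO gives IC50 by constrained four-parameter logistic fit.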
Target sequence in this assay (Q06187 2-659): as the sequence (Q06187 2-659 C481S) above, with S480C counted along it

IC50 [2] | IC50 [4] | SMILES | K (min^−1), intrinsic rate constant [1] | BTK (wt) Kobs [3]
 |  | CCN(C(=O)n1cncn1)C1CC1 | <0.0005 min⁻¹ | 
≤ 1000 nM | > 1000 nM | CN(CCC1CNc2c(C(N)=O)c(-c3ccc(Oc4ccccc4)cc3)nn2C1)C(=O)n1cncn1 (stereo not shown) [Compound 265, 6-(2-(N-methyl-1H-1,2,4-triazole-1-carboxamido)ethyl)-2-(4-phenoxy-phenyl)-4,5,6,7-tetrahydro-pyrazolo[1,5-a]pyrimidine-3-carboxamide] |  | 248, 249, 250, 253, 254, 256, 259, 260, 261, 264, 265, M^−1 · s^−1
 |  | CCN(CC)C(=O)n1cncn1 | <0.0005 min⁻¹ | 
 |  | CC1CCCCN1C(=O)n1cncn1 (stereo not shown) | <0.0005 min⁻¹ | 
≤ 1000 nM | ≤ 1000 nM | NC(=O)c1c(-c2ccc(Oc3ccccc3)cc2)nn2c1NCCC2C1CCN(C(=O)n2cncn2)CC1 (stereo not shown) [Compound 136, 7-(1-(1H-1,2,4-triazole-1-carbonyl)piperidin-4-yl)-2-(4-phenoxyphenyl)-4,5,6,7-tetrahydropyrazolo[1,5-a] pyrimidine-3-carboxamide] |  | 132, 134, 136, 137, 138, 140, 150, 152, 153, 154, 155, M^−1 · s^−1
≤ 1000 nM | > 1000 nM | COc1ccc(F)cc1C(=O)NCc1ccc(-c2nn(C(C)C(C)N(C)C(=O)n3cnnc3)c(N)c2C(N)=O)cc1 (stereo not shown) [Compound 155, N-(3-(5-amino-4-carbamoyl-3-(4-((5-fluoro-2-methoxybenzamido)methyl)phenyl)-1H-pyrazol-1-yl)butan-2-yl)-N-methyl-4H-1,2,4-triazole-4-carboxamide] |  | 132, 134, 136, 137, 138, 140, 150, 152, 153, 154, 155, M^−1 · s^−1
 |  | C=CC(=O)N(CC)C1CC1 | 0.0159 min⁻¹ | 
> 1000 nM | > 1000 nM | COCC(CN(C)C(=O)n1cncn1)n1nc(-c2ccc(CNC(=O)c3cc(F)ccc3OC)cc2)c2c(N)ncnc21 (stereo not shown) [Compound 261, N-(2-(4-amino-3-(4-((5-fluoro-2-methoxybenzamido)methyl)phenyl)-1H-pyrazolo[3,4-d]pyrimidin-1-yl)-3-methoxypropyl)-N-methyl-1H-1,2,4-triazole-1-carboxamide] |  | 248, 249, 250, 253, 254, 256, 259, 260, 261, 264, 265, M^−1 · s^−1
≤ 1000 nM | ≤ 1000 nM | COc1ccc(F)cc1C(=O)NCc1ccc(-c2nn(C3CCCCN(C(=O)n4cncn4)C3)c(N)c2C(N)=O)cc1 (stereo not shown) [Compound 256, 1-(1-(1H-1,2,4-triazole-1-carbonyl)azepan-3-yl)-5-amino-3-(4-((5-fluoro-2-methoxybenzamido)methyl)phenyl)-1H-pyrazole-4-carboxamide] |  | 248, 249, 250, 253, 254, 256, 259, 260, 261, 264, 265, M^−1 · s^−1
≤ 1000 nM | ≤ 1000 nM | COc1ccc(F)cc1C(=O)NCc1ccc(-c2nn(C3CCCC(CN(C)C(=O)n4cncn4)C3)c3ncnc(N)c23)cc1 (stereo not shown) [Compound 260, N-((3-(4-amino-3-(4-((5-fluoro-2-methoxybenzamido)methyl)phenyl)-1H-pyrazolo[3,4-d]pyrimidin-1-yl)cyclohexyl)methyl)-N-methyl-1H-1,2,4-triazole-1-carboxamide] |  | 248, 249, 250, 253, 254, 256, 259, 260, 261, 264, 265, M^−1 · s^−1
> 1000 nM | > 1000 nM | COc1ccc(F)cc1C(=O)NCc1ccc(-c2nn(C(CCCN(C)C(=O)n3cncn3)N(C)C)c3ncnc(N)c23)cc1 (stereo not shown) [Compound 254, N-(4-(4-amino-3-(4-((5-fluoro-2-methoxybenzamido)methyl)phenyl)-1H-pyrazolo[3,4-d]pyrimidin-1-yl)-4-(dimethyl-amino)butyl)-N-methyl-1H-1,2,4-triazole-1-carboxamide] |  | 248, 249, 250, 253, 254, 256, 259, 260, 261, 264, 265, M^−1 · s^−1
≤ 1000 nM | ≤ 1000 nM | COc1ccc(F)cc1C(=O)NCc1ccc(-c2nn(C(C)C(C)N(C)C(=O)n3cncn3)c3ncnc(N)c23)cc1 (stereo not shown) [Compound 250, N-(3-(4-amino-3-(4-((5-fluoro-2-methoxybenzamido)methyl)phenyl)-1H-pyrazolo[3,4-d]pyrimidin-1-yl)butan-2-yl)-N-methyl-1H-1,2,4-triazole-1-carboxamide] |  | 248, 249, 250, 253, 254, 256, 259, 260, 261, 264, 265, M^−1 · s^−1
≤ 1000 nM | ≤ 1000 nM | COc1ccc(F)cc1C(=O)NCc1ccc(-c2nn(C[C@@H]3C[C@@H](C)CCN3C(=O)n3cnnc3)c(N)c2C(N)=O)cc1 [Compound 264, 5-amino-3-(4-((5-fluoro-2-methoxybenzamido)methyl)phenyl)-1-(((2S,4S)-4-methyl-1-(4H-1,2,4-triazole-4-carbonyl)piperidin-2-yl)methyl)-1H-pyrazole-4-carboxamide] |  | 248, 249, 250, 253, 254, 256, 259, 260, 261, 264, 265, M^−1 · s^−1
≤ 1000 nM | ≤ 1000 nM | COc1ccc(F)cc1C(=O)NCc1ccc(-c2nn(C[C@@H]3CCC[C@H]3CN(C)C(=O)n3cncn3)c3ncnc(N)c23)cc1 [Compound 153, N-(((1R,2R)-2-((4-amino-3-(4-((5-fluoro-2-methoxybenzamido)methyl)phenyl)-1H-pyrazolo[3,4-d]pyrimidin-1-yl)methyl)cyclopentyl)methyl)-N-methyl-1H-1,2,4-triazole-1-carboxamide] |  | 132, 134, 136, 137, 138, 140, 150, 152, 153, 154, 155, M^−1 · s^−1
≤ 1000 nM | > 1000 nM | NC(=O)c1c(-c2ccc(Oc3ccccc3)cc2)nn2c1NCCC2[C@H]1CCCN1C(=O)n1cncn1 (stereo partly drawn) [Compound 140, 7-((R)-1-(1H-1,2,4-triazole-1-carbonyl)pyrrolidin-2-yl)-2-(4-phenoxyphenyl)-4,5,6,7-tetrahydropyrazolo[1,5-a] pyrimidine-3-carboxamide] |  | 132, 134, 136, 137, 138, 140, 150, 152, 153, 154, 155, M^−1 · s^−1
≤ 1000 nM | ≤ 1000 nM | COc1ccc(F)cc1C(=O)NCc1ccc(-c2nn(C[C@H]3CCCCN3C(=O)n3cncn3)c(N)c2C(N)=O)cc1 [Compound 154, (R)-1-((1-(1H-1,2,4-triazole-1-carbonyl)piperidin-2-yl)methyl)-5-amino-3-(4-((5-fluoro-2-methoxybenzamido)methyl)phenyl)-1H-pyrazole-4-carboxamide] |  | 132, 134, 136, 137, 138, 140, 150, 152, 153, 154, 155, M^−1 · s^−1
